In article PMC3480388 (PLoS ONE, 2012):
Where a chain is given by its changes, count along the chain named. Read-outs that look alike come from different tables or passages of the source. Each block holds one molecule with its values, some of them ahead of it.

Experiments:
[1] = target: T1, rP2X2 K69C mutant receptor (Rattus norvegicus, UniProt P49653, K69C); experiment: Two-electrode voltage clamp of Xenopus oocytes expressing K69C mutant rP2X2; assay type: cell-based; settings: for Response after challenge compound (nA) 100 µM Zn / Response after challenge compound (nA) 1,000 µM ATP / Response after challenge compound (nA) pH 6.5: test compound 50 µM, 5 minutes; for binding to and activation of K69C receptors: tested for responses to zinc, pH 6.5 and ATP, then challenge with AM546 or MTSEA; for restoration of ability to respond to ATP after test compound: test compound 1 mM, 1 minute, then 1,000 µM ATP; for amplitude of response to 100 µM zinc: K69C after AM546 then MTSEA, N = 6
T1 construct: expressed in transfected cells; host or cells: Xenopus laevis oocytes (RNA injection)
T1 sequence (P49653 1-472 K69C): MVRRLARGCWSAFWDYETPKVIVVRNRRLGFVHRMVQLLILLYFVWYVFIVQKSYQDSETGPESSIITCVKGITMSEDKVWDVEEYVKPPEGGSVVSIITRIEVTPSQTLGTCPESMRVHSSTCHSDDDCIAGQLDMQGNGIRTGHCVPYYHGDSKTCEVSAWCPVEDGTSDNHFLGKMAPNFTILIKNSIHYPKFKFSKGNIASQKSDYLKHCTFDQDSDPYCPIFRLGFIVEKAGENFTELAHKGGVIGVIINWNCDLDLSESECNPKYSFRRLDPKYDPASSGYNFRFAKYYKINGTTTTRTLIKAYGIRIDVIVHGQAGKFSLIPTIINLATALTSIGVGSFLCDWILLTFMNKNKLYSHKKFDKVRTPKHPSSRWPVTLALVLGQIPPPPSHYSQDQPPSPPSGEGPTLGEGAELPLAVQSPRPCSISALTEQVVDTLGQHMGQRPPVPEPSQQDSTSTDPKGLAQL

[2] = target: T2, rP2X2 K308C mutant receptor (Rattus norvegicus, UniProt P49653, K308C); experiment: Two-electrode voltage clamp of Xenopus oocytes expressing K308C mutant rP2X2; assay type: cell-based; settings: for restoration of ability to respond to ATP after test compound: test compound 1 mM, 15 minutes, then 1,000 µM ATP
T2 construct: expressed in transfected cells; host or cells: Xenopus laevis oocytes (RNA injection)
T2 sequence (P49653 1-472 K308C): T1 sequence (P49653 1-472 K69C) with C69K, K308C

[3] = target: T3, wild type rP2X2 (Rattus norvegicus, UniProt P49653); experiment: Two-electrode voltage clamp of Xenopus oocytes expressing wild type rP2X2; assay type: cell-based
T3 construct: expressed in transfected cells; host or cells: Xenopus laevis oocytes (RNA injection)
T3 sequence (P49653 1-472): T1 sequence (P49653 1-472 K69C) with C69K

[4] = test system: uninjected oocytes; experiment: Two-electrode voltage clamp of uninjected oocytes (control); assay type: cell-based, Xenopus laevis; settings: N = 14
Protocol: This study was carried out in strict accordance with the recommendations in the Guide for the Care and Use of Laboratory Animals of the National Institutes of Health. The protocol was approved by the University Committee on the Use and Care of Animals of the University of Michigan (Protocol 08396-4). The rP2X2 receptors were expressed in defolliculated stage V-VI Xenopus laevis oocytes. Oocytes were harvested using procedures that have been described in detail previously.
RNAs encoding wild type and mutant rP2X2 receptors were synthesized using the mMessage mMachine T7 kit (Life Technologies, Grand Island, NY). Each oocyte was injected with 50 nl of RNA (10–20 ng/µl). Two-electrode voltage clamp experiments were performed 2–5 days after RNA injection. Except where indicated otherwise, recordings were made at a holding potential of −50 mV. Recording electrodes were pulled from thin walled borosilicate glass and had resistances of 0.2–1 MΩ. Currents were recorded with a Turbo TEC-03 or TEC-10 voltage clamp amplifier (npi electronic GmBH, Tamm, Germany). Data acquisition was performed using a Digidata 1322A interface controlled by pCLAMP 9 or 10 (Molecular Devices, Sunnyvale, CA).
To regulate the delivery of most test solutions into the recording chamber, we used a gravity fed valve array. […]

[5] = target: T3, wild type rP2X2; settings: cited from earlier work
[6] = target: T4, rP2X2 K69C/H319K double mutant (Rattus norvegicus, UniProt P49653, H319K/K69C); experiment: Two-electrode voltage clamp of Xenopus oocytes expressing K69C/H319K double mutant rP2X2; assay type: cell-based
T4 construct: expressed in transfected cells; host or cells: Xenopus laevis oocytes (RNA injection)
T4 sequence (P49653 1-472 K69C/H319K): T1 sequence (P49653 1-472 K69C) with H319K

[7] = test system: P2X1 mutant homologous to K69A; settings: ref [28]; cited from earlier work
[8] = AM546-treated K69C, no exogenous ATP

Molecule: Alexa Fluor 568 C5-maleimide [AM-568]
- Response after challenge compound (nA) 100 µM Zn ([1]; then challenge compound MTSEA): −9±4 nA
- Response after challenge compound (nA) 1,000 µM ATP ([1]; then challenge compound MTSEA): −41±9 nA
- Response after challenge compound (nA) pH 6.5 ([1]; then challenge compound MTSEA): −25±0 nA
- binding to and activation of K69C receptors [1]: could bind to, but not activate

Molecule: CSS(C)(=O)=O [MMTS, Methyl Methanethiosulfonate]
- restoration of ability to respond to ATP after test compound [2]: None of these compounds restored the ability
- restoration of ability to respond to ATP after test compound [1]: None of these compounds restored the ability

Molecule: C[N+](C)(C)CCSS(C)(=O)=O.[Cl-] [MTSET, [2-(Trimethylammonium)ethyl] Methanethiosulfonate Chloride]
- restoration of ability to respond to ATP after test compound [2]: None of these compounds restored the ability
- restoration of ability to respond to ATP after test compound [1]: None of these compounds restored the ability

Molecule: Alexa Fluor 488 C5-maleimide [AM-488]
- Response after challenge compound (nA) 100 µM Zn ([1]; then challenge compound AM-546): −10±9 nA
- Response after challenge compound (nA) 1,000 µM ATP ([1]; then challenge compound AM-546): −10±3 nA
- Response after challenge compound (nA) pH 6.5 ([1]; then challenge compound AM-546): −16±5 nA
- binding to and activation of K69C receptors [1]: could bind to, but not activate

Molecule: Cc1ccc(C(=O)Nc2ccc(S(=O)(=O)O)c3cc(S(=O)(=O)O)cc(S(=O)(=O)O)c23)cc1NC(=O)c1cccc(NC(=O)Nc2cccc(C(=O)Nc3cc(C(=O)Nc4ccc(S(=O)(=O)O)c5cc(S(=O)(=O)O)cc(S(=O)(=O)O)c45)ccc3C)c2)c1 [suramin, Suramin]
- outward suramin currents due to inhibition of basal ATP ([3]; cells with maximal currents to saturating ATP of about −20 µA): 10–500 nA
- Hill coefficient (suramin) ([3]; no exogenous ATP, N = 11): 1.2±0.1
- IC50 ([3]; read-out: suramin IC50 (outward current response)): 8.3 ± 1.1 µM
- average suramin response [4]: −1.3±1.9 nA
- IC50 for suramin [7]: normal
- Hill coefficient (suramin activation) [1, 8]: 1.1±0.1
- maximal response to suramin (inward current) [1, 8]: −450±51 nA
- response to suramin ([1]; K69C prior to AM546 treatment, no exogenous ATP): no response
- EC50 ([1]; read-out: suramin EC50 (activation)): 52 ± 5 µM

Continued, in another order:

- Response after challenge compound (nA) 100 µM Zn ([1]; then challenge compound MTSEA): −2±1 nA
- Response after challenge compound (nA) 1,000 µM ATP ([1]; then challenge compound MTSEA): −26±7 nA
- Response after challenge compound (nA) pH 6.5 ([1]; then challenge compound MTSEA): −7±5 nA
- binding to and activation of K69C receptors [1]: could bind to, but not activate
Molecule: Alexa Fluor 594 C5-maleimide [AM-594]

- Izinc average current ([2]; untreated K308C, 100 µM zinc, N = 6): −5±4 nA
- current as % of the maximum after addition of zinc ([3]; 20 µM zinc, ATP giving 10% of maximum at pH 7.5): 80–90%
- amplitude of response to 100 µM zinc ([1]; with 1,000 µM ATP): 2.74±0.47 µA
- amplitude of response to 100 µM zinc ([1]; without ATP): 0.39±0.06 µA
- additional inward current in response to zinc ([6]; 50 µM zinc, after AM546, 'over' refers to magnitude): over −6 µA
- current in response to zinc alone ([6]; 50 µM zinc, before AM546, no exogenous ATP, N = 12): −2.9±0.9 µA
Molecule: [Cl-].[Cl-].[Zn+2] [zinc, Zinc chloride]
- average response to a zinc jump ([4]; 50 µM zinc): +8.6±1.9 nA
- enhancement of the current by a zinc jump ([5]; untreated wild type, EC10 ATP, pH 7.5, 20 µM zinc, ref [17], [20]): approximately 8 fold

- EC50 ([2]; MTSEA-modified K308C): 374 ± 35 µM
- Hill coefficient (ATP) ([2]; MTSEA-modified K308C): 1.3±0.1
- inward current ([3]; 1,000 µM ATP, same RNA concentration as K69C, 'over' refers to magnitude): over −20 µA
- EC50 ([3]; wild type rP2X2): 32 ± 1 µM
- ATP response ([1]; AM546-modified K69C, 1,000 µM ATP, 'greater than' refers to magnitude): greater than −100 nA
- EC50 ([1]; MTSEA-modified K69C): 924 ± 102 µM
- Hill coefficient (ATP) ([1]; MTSEA-modified K69C): 1.4±0.1
- EC50 [6]: ~145 µM
Molecule: Nc1ncnc2c1ncn2C1OC(COP(=O)(O)OP(=O)(O)OP(=O)(O)O)C(O)C1O (stereo not drawn) [ATP, Disodium ATP]
- Hill Coefficient (typical value for wild type rP2X2) ([5]; typical value used to estimate basal ATP levels, ref not given): 1.5
